Where two headings read alike, the source gives them in different places.
Legend:
[1] = molecular target: T1, human CCR2B (Homo sapiens (Human), UniProt P41597); assay: Inhibition of [125I]-labeled MCP-1 binding to hCCR2B (radioligand binding in CHO cells); settings: mean Ki; [125I]-MCP-1 50 pM; CHO cells expressing human CCR2B and Gα16
Description: CHO cells expressing human CCR2B were generated as follows. cDNA for human CCR2B (cloned from human blood) was cloned into plasmid pcDNA3.1 (from Invitrogen). The resulting plasmids were separately transfected into CHO cells expressing human Gα16 (from Molecular Devices). […] CHO cells expressing rat CCR2 were generated as follows. cDNA for rat CCR2 (cloned from rat macrophage) was cloned into plasmid pEF-flag (from Chinese Academy of Science). The resulting plasmids were transfected into CHO cells expressing human Gα16 (from […]).
Inhibition of [^125I]-Labeled MCP-1 Binding to hCCR2B
Radioligand binding assays were performed in CHO cells expressing human CCR2B and Gα16 coupling protein. All compounds were dissolved in DMSO and assays run at a final DMSO concentration of 0.5% (v/v). [^125I]-labeled human MCP-1 was purchased from PerkinElmer. Unlabelled human MCP-1 was purchased from PeproTech.
Compounds were serially diluted in DMSO before diluting into assay buffer (25 mM HEPES, pH 7.4, 5 mM MgCl2, 1 mM CaCl2, 0.5% BSA) with cryo preserved CHO cells expressing human CCR2B and the Gα16 coupling protein (30×10^3/well) and [^125I]-MCP-1 (50 pM). The reaction was incubated at room temperature for 90 minutes before transferring to GF/C filter membrane (PerkinElmer) pre-treated with 0.3% polyethyleneimine for 2 hours at 4° C. The filter membrane was washed six times with ice cold wash buffer (25 mM HEPES, pH 7.4, 5 mM MgCl2, 1 mM CaCl2, 500 mM NaCl, 0.01% (m/v) azide), dried, and sealed in a RLB sample bag (Agilent Technologies) before adding 5.0 mL Microscint 20 to each bag. Membrane was counted on Microbeta counter where background binding was determined by the presence of 100 nM MCP-1 and control total binding was determined by addition of DMSO in place of the test compound. The radioactivity values (cpm) were used to calculate the percent inhibition at a given compound concentration and the data fit to a sigmoidal curve in a semi-log plot to determine IC50 values. The corresponding Ki value is calculated as follows:
Ki=IC50/(1+[radioligand]/Kd), where [radioligand] is the concentration of the label and Kd (dissociation constant) is determined in saturation experiment with different concentrations of labeled MCP-1.

[2] = molecular target: T1, human CCR2B; assay: Inhibition of native agonist (human MCP-1)-induced intracellular calcium release, calcium flux assay in CHO cells expressing human CCR2B and Gα16; format: cell-based; settings: for IC50: read-out: hCCR2B IC50; for Kb: read-out: hCCR2B Kb
Outline: (§1)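 Compound added to Calcium 4 dye-loaded adherent cells (dye loading 60 min, 37° C., HEPES pH 7.4 buffer with probenecid), then agonist: human MCP-1 at 2 nM final for hCCR2B cells, rat MCP-1 at 4 nM final for rCCR2 cells. FLIPR fluorescence change gave IC50. Kb=IC50/(1+[agonist]/EC50). Final DMSO 0.25%.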

[3] = molecular target: rat CCR2 (Rattus norvegicus (Rat), UniProt O55193); assay: Inhibition of native agonist (rat MCP-1)-induced intracellular calcium release, calcium flux assay in CHO cells expressing rat CCR2 and Gα16; format: cell-based; settings: read-out: rCCR2 Kb
Outline: as §1

[4] = molecular target: CCR2 (Rattus norvegicus (Rat), UniProt O55193); settings: direct injection of MCP-1 in the spinal cord; cited from earlier work
[5] = test system: CCR2; settings: in vivo; cited from earlier work

T1 sequence (P41597 other isoform, or with tags, fused parts or gaps): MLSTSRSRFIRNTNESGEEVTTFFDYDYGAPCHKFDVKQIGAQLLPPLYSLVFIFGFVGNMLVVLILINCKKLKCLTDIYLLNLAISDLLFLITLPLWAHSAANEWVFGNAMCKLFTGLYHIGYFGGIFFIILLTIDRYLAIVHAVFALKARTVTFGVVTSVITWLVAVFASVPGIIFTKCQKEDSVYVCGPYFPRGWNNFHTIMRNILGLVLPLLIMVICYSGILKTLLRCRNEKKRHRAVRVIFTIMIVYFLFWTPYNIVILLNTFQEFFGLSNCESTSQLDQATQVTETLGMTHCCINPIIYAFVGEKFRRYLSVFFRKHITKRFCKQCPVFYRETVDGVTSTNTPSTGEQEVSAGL
Chain of rat CCR2 (O55193 whole entry): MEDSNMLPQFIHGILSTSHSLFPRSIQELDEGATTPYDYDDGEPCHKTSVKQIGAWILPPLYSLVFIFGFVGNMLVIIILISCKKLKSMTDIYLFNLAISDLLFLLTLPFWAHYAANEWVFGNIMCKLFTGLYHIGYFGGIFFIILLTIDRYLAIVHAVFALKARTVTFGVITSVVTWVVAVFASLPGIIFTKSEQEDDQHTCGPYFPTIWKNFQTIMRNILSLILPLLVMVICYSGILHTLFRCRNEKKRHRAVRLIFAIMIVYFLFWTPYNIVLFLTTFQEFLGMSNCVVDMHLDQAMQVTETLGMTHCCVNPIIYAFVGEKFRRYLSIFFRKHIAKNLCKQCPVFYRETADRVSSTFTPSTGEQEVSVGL
Chain of CCR2 (Rattus norvegicus (Rat), UniProt O55193) (O55193 whole entry): as above

| SMILES | Ki [1] | IC50 [2] | Kb [2] | Kb [3] | IC50 ([2]; calcium flux, human MCP-1 2 nM) | MCP-1 induced pronociception (thermal hyperalgesia and mechanical allodynia) [4] | hyperalgesia induced by MCP-1 injection in the RVM [5] |
| --- | --- | --- | --- | --- | --- | --- | --- |
| CO[C@@H]1COCC[C@@H]1N[C@@H]1C[C@H]2CCC[C@@]2(C(=O)N2C[C@@H]3C[C@H]2CN3C(=O)OC(C)(C)C)C1 [Example 60, 1,5-anhydro-3-{[(2R,3aR,6aR)-3a-{[(1S,4S)-5-(tert-butoxycarbonyl)-2,5-diazabicyclo[2.2.1]hept-2-yl]carbonyl}octahydropentalen-2-yl]amino}-2,3-dideoxy-4-O-methyl-D-erythro-pentitol] | 552 nM | 328 nM | 81 nM | 19 nM |  |  |  |
| C[C@H]1COCC[C@@H]1N[C@@H]1C[C@H]2CCC[C@@]2(C(=O)N2C[C@@H]3C[C@H]2CN3c2cc(C(F)(F)F)ccn2)C1 [Example 61, [(2R,3aR,6aR)-2-{[(3R,4S)-3-methyltetrahydro-2H-pyran-4-yl]amino}hexahydropentalen-3a(1H)-yl]{(1S,4S)-5-[4-(trifluoromethyl)pyridin-2-yl]-2,5-diazabicyclo[2.2.1]hept-2-yl}methanone] | 69 nM |  | 25 nM | 30 nM | 100 nM |  |  |
| C[C@@H]1COCC[C@@H]1N[C@@H]1C[C@H]2CCC[C@@]2(C(=O)N2C[C@@H]3C[C@H]2CN3c2cc(C(F)(F)F)ccn2)C1 [Example 63, [(2R,3aR,6aR)-2-{[(3S,4S)-3-methyltetrahydro-2H-pyran-4-yl]amino}hexahydropentalen-3a(1H)-yl]{(1S,4S)-5-[4-(trifluoromethyl)pyridin-2-yl]-2,5-diazabicyclo[2.2.1]hept-2-yl}methanone] | 10 nM |  | 4 nM | 6 nM | 17.9 nM |  |  |
| C[C@@H]1COCC[C@H]1N[C@@H]1C[C@H]2CCC[C@@]2(C(=O)N2C[C@@H]3C[C@H]2CN3c2cc(C(F)(F)F)ccn2)C1 [Example 64, [(2R,3aR,6aR)-2-{[(3S,4R)-3-methyltetrahydro-2H-pyran-4-yl]amino}hexahydropentalen-3a(1H)-yl]{(1S,4S)-5-[4-(trifluoromethyl)pyridin-2-yl]-2,5-diazabicyclo[2.2.1]hept-2-yl}methanone] | 12 nM |  | 4 nM | 9 nM | 16.5 nM |  |  |
| CC[C@@H]1COCC[C@@H]1N[C@@H]1C[C@H]2CCC[C@@]2(C(=O)N2C[C@@H]3C[C@H]2CN3c2cc(C(F)(F)F)ccn2)C1 [Example 65, [(2R,3aR,6aR)-2-{[(3S,4S)-3-ethyltetrahydro-2H-pyran-4-yl]amino}hexahydropentalen-3a(1H)-yl]{(1S,4S)-5-[4-(trifluoromethyl)pyridin-2-yl]-2,5-diazabicyclo[2.2.1]hept-2-yl}methanone] | 6 nM | 28 nM | 7 nM | 8 nM |  |  |  |
| CC[C@@H]1COCC[C@H]1N[C@@H]1C[C@H]2CCC[C@@]2(C(=O)N2C[C@@H]3C[C@H]2CN3c2cc(C(F)(F)F)ccn2)C1 [Example 66, [(2R,3aR,6aR)-2-{[(3S,4R)-3-ethyltetrahydro-2H-pyran-4-yl]amino}hexahydropentalen-3a(1H)-yl]{(1S,4S)-5-[4-(trifluoromethyl)pyridin-2-yl]-2,5-diazabicyclo[2.2.1]hept-2-yl}methanone] | 13 nM |  | 11 nM | 8 nM | 45.8 nM |  |  |
| CCO[C@H]1CN(C2CCC(O)(c3ccc4c(c3)OCO4)CC2)C[C@@H]1NC(=O)CNC(=O)c1cccc(C(F)(F)F)c1 (some centres unmarked) [INCB3344] |  |  |  |  |  | blocked |  |
| O=C1Nc2ccccc2C2(CCN(CCc3ccc(C(F)(F)F)cc3)CC2)O1 [RS102895] |  |  |  |  |  |  | reversed |
